System: 885512-296-R-J2-PDC complex spheroid growth, % test/control
Test: Anticancer human tumor 885512-296-R-J2-PDC patient-derived breast carcinoma cell line growth inhibition [AhR]
Conditions: for IC50: curve of first compound; for viability, T/C: stronger effect = lower value
Text: Multicellular complex tumor spheroid response to aryl hydrocarbon receptor antagonists in combination with a variety of drugs and investigational agents in selected tumor cell lines
The current study was undertaken to assess response to aryl hydrocarbon receptor antagonists in combination with standard-of-care drugs and investigational agents in solid tumor complex spheroid models. Complex spheroids include a stromal component modeled by human endothelial cells (HUVEC) and fibroblasts modeled by human mesenchymal stem cells (MSCs). The concentration ranges selected for each drug and investigational agent were based upon clinically achievable concentrations if the clinical Cmax of the agent was known.
Compounds. The drugs and investigational agents: BAY 2416964 (NSC825713), GNF351 (NSC835774), CH-223191 (NSC835775), CPI-455 (NSC825282), aza-TdCyd (NSC777586), decitabine (NSC127716), belinostat (NSC758774), entinostat (NSC756642), pevonedistat (NSC761192), tazemetostat (NSC777109), talazoparib (NSC765396), olaparib (NSC753686), selinexor (NSC780203), nedisertib (M3814, NSC802822), bortezomib (NSC756655), venetoclax (NSC766270), doxorubicin (NSC123127), elimusertib (BAY189344, NSC800525), ceralasertib (AZD6738, NSC777638), TAK-243 (NSC785004), alisertib (NSC759677), etoposide (NSC141540), topotecan (NSC609699), eribulin (NSC707389), gemcitabine (NSC613327), carboplatin (NSC241240), cisplatin (NSC119875), and SN-38 (NSC673596) were obtained from the National Cancer Institute (NCI) Developmental Therapeutics Program Chemical Repository (32). The FDA-approved anticancer drug set is available from the Developmental Therapeutics Program at https://dtp.cancer.gov/organization/dscb/obtaining/available plates.htm. […] The stock solutions were prepared in dimethyl sulfoxide (DMSO, Sigma-Aldrich, St. Louis, MO, cat. D2650), except for the platinum compounds which were prepared in saline (Quality Biological, Gaithersburg, MD, cat. 114-055-101), at 800-fold the tested concentration and stored at -70 degrees C prior to their use. All drugs and investigational agents were tested over a range starting from a high concentration at or near the clinical Cmax and decreasing in half-log increments. If the clinical Cmax for an agent had not been determined, the highest concentration tested was 10 microM (Table 1).
Cell Culture. All cells were maintained in an incubator at 37 degrees C and 5% CO2 with 95% humidity. The PDC lines were cultured according to standard operating procedures established by the NCI PDMR (https://pdmr.cancer.gov). Briefly, all PDCs were thawed and cultured in Matrigel-coated flasks prepared with a working solution of 1X Ham's F-12 nutrient mix, without supplementation (Invitrogen, Waltham, MA, cat. 11765054), 100 U/mL penicillin-streptomycin (Invitrogen, cat. 15140122), and 2.5% Matrigel (Corning Inc., Corning, NY, cat. 354248) for the first three passages. All PDCs were cultured in complete DMEM/F-12 media containing advanced DMEM/F-12 (Invitrogen, cat. 12634028), 4.9% defined fetal bovine serum, heat inactivated (HyClone Laboratories Inc., Logan, UT, cat. SH30070.03HI), 389 ng/mL hydrocortisone (Sigma-Aldrich, cat. H4001), 9.7 ng/mL human EGF recombinant protein (Invitrogen, cat. PHG0313), 23.4 microg/mL adenine (Sigma-Aldrich, cat. A2786), 97.3 U/mL penicillin-streptomycin (Invitrogen, cat. 15140122), 1.9 mM L-glutamine (Invitrogen, cat. 25030081), and 9.7 microM Y-27632 dihydrochloride (Tocris Bioscience, Bristol, United Kingdom, cat. 1254). The PDCs were cultured in complete DMEM/F12 media without 10 microM Y-27632 dihydrochloride for at least two passages prior to the screen. The established cell lines NCI-H1341 and […] were cultured in DMEM/F-12, HEPES (Invitrogen, cat. 11330032), 5% defined fetal bovine serum (HyClone Laboratories Inc., cat. SH30070.03), ITS premix universal culture supplement [insulin (5 microg/mL), transferrin (5 microg/mL), and selenious acid (5 ng/mL)] […]

[1] = second compound 0.1 µM, first compound 0.0316 µM
[2] = second compound 0.1 µM, first compound 0.1 µM
[3] = second compound 0.1 µM, first compound 0.316 µM
[4] = second compound 0.1 µM, first compound 1 µM
[5] = second compound 0.1 µM, first compound 3.16 µM
[6] = second compound 0.1 µM, first compound 10 µM
[7] = second compound 0.316 µM, first compound 0.0316 µM
[8] = second compound 0.316 µM, first compound 0.1 µM
[9] = second compound 0.316 µM, first compound 0.316 µM
[10] = second compound 0.316 µM, first compound 1 µM
[11] = second compound 0.316 µM, first compound 3.16 µM
[12] = second compound 0.316 µM, first compound 10 µM
[13] = second compound 1 µM, first compound 0.0316 µM
[14] = second compound 1 µM, first compound 0.1 µM
[15] = second compound 1 µM, first compound 0.316 µM
[16] = second compound 1 µM, first compound 1 µM
[17] = second compound 1 µM, first compound 3.16 µM
[18] = second compound 1 µM, first compound 10 µM
[19] = second compound 3.16 µM, first compound 0.0316 µM
[20] = second compound 3.16 µM, first compound 0.1 µM
[21] = second compound 3.16 µM, first compound 0.316 µM
[22] = second compound 3.16 µM, first compound 1 µM
[23] = second compound 3.16 µM, first compound 3.16 µM
[24] = second compound 3.16 µM, first compound 10 µM
[25] = second compound 10 µM, first compound 0.0316 µM
[26] = second compound 10 µM, first compound 0.1 µM
[27] = second compound 10 µM, first compound 0.316 µM
[28] = second compound 10 µM, first compound 1 µM
[29] = second compound 10 µM, first compound 3.16 µM
[30] = second compound 10 µM, first compound 10 µM
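Note: spheroids exposed to compounds for seven days.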

CCc1c2c(nc3ccc(O)cc13)-c1cc3c(c(=O)n1C2)COC(=O)[C@]3(O)CC + CC(CO)NC(=O)c1cc(-c2ccc(Cl)cc2)nn(-c2cnn(C)c2)c1=O
IC50 (second compound 0.1 µM): < 0.949 nM
IC50 (second compound 0.316 µM): < 0.949 nM
IC50 (second compound 1 µM): < 0.949 nM
IC50 (second compound 3.16 µM): < 0.949 nM
IC50 (second compound 10 µM): < 0.949 nM
viability, T/C (second compound 0.1 µM, first compound 0.000949 µM): 9.08%
viability, T/C (second compound 0.1 µM, first compound 0.003 µM): 7.28%
viability, T/C (second compound 0.1 µM, first compound 0.00949 µM): 5.78%
viability, T/C (second compound 0.1 µM, first compound 0.03 µM): 3.29%
viability, T/C (second compound 0.1 µM, first compound 0.0949 µM): 2.16%
viability, T/C (second compound 0.1 µM, first compound 0.3 µM): 1.46%
viability, T/C (second compound 0.316 µM, first compound 0.000949 µM): 8.34%
viability, T/C (second compound 0.316 µM, first compound 0.003 µM): 6.02%
viability, T/C (second compound 0.316 µM, first compound 0.00949 µM): 3.71%
viability, T/C (second compound 0.316 µM, first compound 0.03 µM): 3.2%
viability, T/C (second compound 0.316 µM, first compound 0.0949 µM): 1.99%
viability, T/C (second compound 0.316 µM, first compound 0.3 µM): 1.09%
viability, T/C (second compound 1 µM, first compound 0.000949 µM): 10.7%
viability, T/C (second compound 1 µM, first compound 0.003 µM): 7.68%
viability, T/C (second compound 1 µM, first compound 0.00949 µM): 4.79%
viability, T/C (second compound 1 µM, first compound 0.03 µM): 3.71%
viability, T/C (second compound 1 µM, first compound 0.0949 µM): 2.42%
viability, T/C (second compound 1 µM, first compound 0.3 µM): 1.92%
viability, T/C (second compound 3.16 µM, first compound 0.000949 µM): 10.8%
viability, T/C (second compound 3.16 µM, first compound 0.003 µM): 9.5%
viability, T/C (second compound 3.16 µM, first compound 0.00949 µM): 4.77%
viability, T/C (second compound 3.16 µM, first compound 0.03 µM): 4.01%
viability, T/C (second compound 3.16 µM, first compound 0.0949 µM): 2.56%
viability, T/C (second compound 3.16 µM, first compound 0.3 µM): 2.05%
viability, T/C (second compound 10 µM, first compound 0.000949 µM): 13.8%
viability, T/C (second compound 10 µM, first compound 0.003 µM): 12.5%
viability, T/C (second compound 10 µM, first compound 0.00949 µM): 6.57%
viability, T/C (second compound 10 µM, first compound 0.03 µM): 4.99%
viability, T/C (second compound 10 µM, first compound 0.0949 µM): 2.67%
viability, T/C (second compound 10 µM, first compound 0.3 µM): 2.21%

Nc1ccn(C2OC(CO)C(O)C2(F)F)c(=O)n1 (stereo not given) + CC(CO)NC(=O)c1cc(-c2ccc(Cl)cc2)nn(-c2cnn(C)c2)c1=O
IC50 (second compound 0.1 µM): < 31.6 nM
IC50 (second compound 0.316 µM): < 31.6 nM
IC50 (second compound 1 µM): < 31.6 nM
IC50 (second compound 3.16 µM): < 31.6 nM
IC50 (second compound 10 µM): < 31.6 nM
viability, T/C [1]: 2.76%
viability, T/C [2]: 3%
viability, T/C [3]: 3.87%
viability, T/C [4]: 4.14%
viability, T/C [5]: 4.54%
viability, T/C [6]: 3.83%
viability, T/C [7]: 3.69%
viability, T/C [8]: 3.44%
viability, T/C [9]: 2.94%
viability, T/C [10]: 4.15%
viability, T/C [11]: 4.75%
viability, T/C [12]: 4.18%
viability, T/C [13]: 2.96%
viability, T/C [14]: 3.26%
viability, T/C [15]: 3.72%
viability, T/C [16]: 3.82%
viability, T/C [17]: 5.38%
viability, T/C [18]: 4.22%
viability, T/C [19]: 3.18%
viability, T/C [20]: 2.97%
viability, T/C [21]: 3.84%
viability, T/C [22]: 3.9%
viability, T/C [23]: 4.31%
viability, T/C [24]: 4.48%
viability, T/C [25]: 6.37%
viability, T/C [26]: 5.16%
viability, T/C [27]: 4.54%
viability, T/C [28]: 3.78%
viability, T/C [29]: 4.11%
viability, T/C [30]: 4.01%

O=C(c1cc(Cc2n[nH]c(=O)c3ccccc23)ccc1F)N1CCN(C(=O)C2CC2)CC1 + CC(CO)NC(=O)c1cc(-c2ccc(Cl)cc2)nn(-c2cnn(C)c2)c1=O
IC50 (second compound 0.1 µM): 6930 nM
IC50 (second compound 0.316 µM): 6970 nM
IC50 (second compound 1 µM): 7140 nM
IC50 (second compound 3.16 µM): 7140 nM
IC50 (second compound 10 µM): 4620 nM
viability, T/C [1]: 98.1%
viability, T/C [2]: 106%
viability, T/C [3]: 110%
viability, T/C [4]: 137%
viability, T/C [5]: 98.1%
viability, T/C [6]: 27.5%
viability, T/C [7]: 102%
viability, T/C [8]: 89.7%
viability, T/C [9]: 112%
viability, T/C [10]: 121%
viability, T/C [11]: 95.5%
viability, T/C [12]: 29.2%
viability, T/C [13]: 96.4%
viability, T/C [14]: 102%
viability, T/C [15]: 105%
viability, T/C [16]: 118%
viability, T/C [17]: 104%
viability, T/C [18]: 27.8%
viability, T/C [19]: 94.7%
viability, T/C [20]: 98.4%
viability, T/C [21]: 111%
viability, T/C [22]: 113%
viability, T/C [23]: 91.9%
viability, T/C [24]: 32.5%
viability, T/C [25]: 98.1%
viability, T/C [26]: 96%
viability, T/C [27]: 109%
viability, T/C [28]: 93.6%
viability, T/C [29]: 62.1%
viability, T/C [30]: 25.8%
